target: PIK3CA (human) (UniProt P42336); assay: Assessment of PIK3CA Kinase Activity
Sequence (P42336 whole entry, looked up): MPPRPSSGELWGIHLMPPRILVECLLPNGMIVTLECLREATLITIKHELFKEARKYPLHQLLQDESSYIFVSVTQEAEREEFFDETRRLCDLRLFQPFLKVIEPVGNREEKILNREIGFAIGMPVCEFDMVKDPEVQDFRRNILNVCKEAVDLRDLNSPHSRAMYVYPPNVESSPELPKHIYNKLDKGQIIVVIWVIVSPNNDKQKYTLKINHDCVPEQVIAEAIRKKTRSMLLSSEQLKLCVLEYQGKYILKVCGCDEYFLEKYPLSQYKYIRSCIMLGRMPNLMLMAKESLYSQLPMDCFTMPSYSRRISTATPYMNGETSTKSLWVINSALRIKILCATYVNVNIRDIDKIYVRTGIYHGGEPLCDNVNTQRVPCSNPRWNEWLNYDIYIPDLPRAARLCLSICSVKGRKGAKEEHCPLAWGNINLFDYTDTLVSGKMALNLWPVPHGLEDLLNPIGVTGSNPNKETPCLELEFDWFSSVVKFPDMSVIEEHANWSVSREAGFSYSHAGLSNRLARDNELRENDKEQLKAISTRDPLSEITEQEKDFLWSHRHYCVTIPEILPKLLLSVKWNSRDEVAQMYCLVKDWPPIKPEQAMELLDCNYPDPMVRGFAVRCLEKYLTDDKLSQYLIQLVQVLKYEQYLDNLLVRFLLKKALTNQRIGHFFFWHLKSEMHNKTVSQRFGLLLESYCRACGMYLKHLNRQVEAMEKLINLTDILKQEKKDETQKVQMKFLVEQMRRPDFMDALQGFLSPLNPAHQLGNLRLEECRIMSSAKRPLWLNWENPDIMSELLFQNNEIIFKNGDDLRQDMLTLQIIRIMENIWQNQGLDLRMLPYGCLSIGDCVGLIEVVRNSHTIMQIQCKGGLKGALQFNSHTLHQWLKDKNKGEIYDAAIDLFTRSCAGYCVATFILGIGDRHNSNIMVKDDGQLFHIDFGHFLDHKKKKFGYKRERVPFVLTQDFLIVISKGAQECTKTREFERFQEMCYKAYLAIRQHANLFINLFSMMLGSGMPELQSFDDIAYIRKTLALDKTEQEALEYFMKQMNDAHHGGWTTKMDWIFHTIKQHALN

IC50 | Compound
≤ 100 nM | COC(=O)Cc1c(C)nc(CN(C)C)nc1N1CCOc2ccc(-c3ccc4nc(C)[nH]c4c3)cc2C1
≤ 100 nM | Cc1nc2ccc(-c3ccc4c(c3)CN(c3nc(CN(C)C)nc(C)c3C)CCO4)cc2[nH]1
≤ 100 nM | Cc1nc2cc(-c3ccc4c(c3)CN(c3nc(CN(C)C)nc(C)c3Br)CCO4)ccc2[nH]1
≤ 100 nM | Cc1nc(N)nc(N2CCOc3ccc(-c4ccc5[nH]cnc5c4)cc3C2)c1C(C)C
≤ 100 nM | Cc1nc2cc(-c3ccc4c(c3)CN(c3nc(NC5CNC5)nc(C)c3C(C)C)CCO4)ccc2[nH]1
100 to 500 nM | COc1ccc(-c2ccc3c(c2)CN(c2nc(N)nc(C)c2C(C)C)CCO3)cc1NS(C)(=O)=O
≤ 100 nM | Cc1nc2cc(-c3ccc4c(c3)CN(c3nc(N)nc(C)c3Cc3ccc(F)cc3)CCO4)cnc2[nH]1
≤ 100 nM | Cc1nc2cc(-c3ccc4c(c3)CN(c3cc(N)ncc3C#N)CCO4)ccc2[nH]1
≤ 100 nM | Cc1nc2cc(-c3ccc4c(c3)CN(c3nc(NCCN(C)C)nc(C)c3Cc3ccc(F)cc3)CCO4)ccc2[nH]1
≤ 100 nM | Cc1nc2cc(-c3ccc4c(c3)CN(c3nc(N)nc(C)c3C(C)C)CCO4)ccc2[nH]1
≤ 100 nM | COC(=O)Nc1nc2cc(-c3ccc4c(c3)CN(c3nc(N)nc(C)c3C(C)C)CCO4)ccc2[nH]1
≤ 100 nM | Cc1nc2cc(-c3ccc4c(c3)CN(c3nc(CNCCF)nc(C)c3C(C)C)CCO4)ccc2[nH]1
100 to 500 nM | Cc1nc2cc(-c3ccc4c(c3)CN(c3nc(NCCCN(C)C)nc(C)c3Cc3ccc(F)cc3)CCO4)ccc2[nH]1
≤ 100 nM | COc1ccc2c(N3CCOc4ccc(-c5ccc6[nH]c(C)nc6c5)cc4C3)nc(CN(C)C)nc2c1
≤ 100 nM | Cc1nc2cc(-c3ccc4c(c3)CN(c3nc(CF)nc5c3CC(C)(C)CC5)CCO4)ccc2[nH]1
≤ 100 nM | Cc1nc2ccc(-c3cc(F)c4c(c3)CN(c3nc(N)nc(C)c3C(C)C)CCO4)cc2[nH]1
≤ 100 nM | Cc1nc2cc(-c3ccc4c(c3)CN(c3nc(N)nc(C)c3C(C)C)CCO4)cnc2[nH]1
≤ 100 nM | Cc1nc2cc(-c3ccc4c(c3)CN(c3nc(CN(C)C)nc(C)c3CCCF)CCO4)ccc2[nH]1
≤ 100 nM | Cc1nc(N)nc(N2CCOc3ccc(-c4cnc5[nH]c(N)nc5c4)cc3C2)c1C(C)C
≤ 100 nM | COCCc1c(C)nc(CN(C)C)nc1N1CCOc2ccc(-c3ccc4nc(C)[nH]c4c3)cc2C1

Continued, compound first:

Compound | IC50
CC(=O)NCc1nc2c(c(N3CCOc4ccc(-c5ccc6[nH]c(C)nc6c5)cc4C3)n1)CC(C)(C)CC2 | ≤ 100 nM
COc1ccc2c(N3CCOc4ccc(-c5cnc6[nH]cnc6c5)cc4C3)nc(CN(C)C)nc2c1 | ≤ 100 nM
Cc1nc2cc(-c3ccc4c(c3)CN(c3nc(CN(C)C)nc(C)c3CC(C)C)CCO4)ccc2[nH]1 | 100 to 500 nM
Cc1nc2cc(-c3ccc4c(c3)CN(c3nc(CN5CCCC5)nc(C)c3C(C)C)CCO4)ccc2[nH]1 | ≤ 100 nM
COc1ccc(-c2ccc3c(c2)CN(c2nc(CN(C)C)nc4c2CC(C)(C)CC4)CCO3)cc1OC(F)F | ≤ 100 nM
Cc1nc2ncc(-c3ccc4c(c3)CN(c3nc(N)nc5c3CC(C)(C)CC5)CCO4)cc2[nH]1 | ≤ 100 nM
CCN(CC)Cc1nc(C)c(C(C)C)c(N2CCOc3ccc(-c4ccc5nc(C)[nH]c5c4)cc3C2)n1 | ≤ 100 nM
CCNc1nc2cc(-c3ccc4c(c3)CN(c3nc(N)nc(C)c3C(C)C)CCO4)ccc2[nH]1 | ≤ 100 nM
COc1ccc(-c2ccc3c(c2)CN(c2nc(CN(C)C)nc(C)c2C(C)C)CCO3)cc1NS(C)(=O)=O | ≤ 100 nM
CC1(C)CCc2nc(N)nc(N3CCOc4ccc(-c5cnc6[nH]cnc6c5)cc4C3)c2C1 | ≤ 100 nM
Cc1nc2cc(-c3ccc4c(c3)CN(c3nc(N)nc5c3CC(C)(C)CC5)CCO4)ccc2[nH]1 | ≤ 100 nM
C=CCc1c(C)nc(CN(C)C)nc1N1CCOc2ccc(-c3ccc4nc(C)[nH]c4c3)cc2C1 | ≤ 100 nM
Cc1nc2cc(-c3ccc4c(c3)CN(c3nc(C(C)N)nc5c3CC(C)(C)CC5)CCO4)ccc2[nH]1 (stereo not given) | ≤ 100 nM
CC1(C)CCc2nc(N)nc(N3CCOc4ccc(-c5ccc6[nH]cnc6c5)cc4C3)c2C1 | ≤ 100 nM
Cc1nc(N)nc(N2CCOc3ccc(-c4ccc5[nH]cnc5c4)cc3C2)c1Cc1ccc(F)cc1 | ≤ 100 nM
COCCOc1cc(-c2ccc3c(c2)CN(c2nc(CN(C)C)nc4c2CC(C)(C)CC4)CCO3)ccc1OC | ≤ 100 nM
CCNc1nc(C)c(Cc2ccc(F)cc2)c(N2CCOc3ccc(-c4ccc5[nH]c(C)nc5c4)cc3C2)n1 | 100 to 500 nM
Cc1nc2cc(-c3ccc4c(c3)CN(c3nc(N)nc(C)c3Cc3ccc(F)cc3)CCO4)ccc2[nH]1 | ≤ 100 nM
Cc1nc(N)nc(N2CCOc3ccc(-c4cnc5[nH]cnc5c4)cc3C2)c1C(C)C | ≤ 100 nM
Cc1nc2cc(-c3ccc4c(c3)CN(c3nc(CN(C)C)nc(C)c3-c3ccccc3)CCO4)ccc2[nH]1 | 100 to 500 nM
Cc1nc2ccc(-c3ccc4c(c3)CN(c3nc(CO)nc(C)c3C(C)C)CCO4)cc2[nH]1 | ≤ 100 nM
CC(=O)OCc1nc(C)c(C(C)C)c(N2CCOc3ccc(-c4ccc5nc(C)[nH]c5c4)cc3C2)n1 | ≤ 100 nM
COc1ccc2c(N3CCOc4ccc(-c5ccc6[nH]cnc6c5)cc4C3)nc(CN(C)C)nc2c1 | ≤ 100 nM
COc1ccc(-c2ccc3c(c2)CN(c2nc(CN(C)C)nc4c2CC(C)(C)CC4)CCO3)cc1S(C)(=O)=O | ≤ 100 nM
Cc1nc2cc(-c3ccc4c(c3)CN(c3nc(NC5CNC5)nc(C)c3Cc3ccc(F)cc3)CCO4)ccc2[nH]1 | ≤ 100 nM
COc1ccc(-c2ccc3c(c2)CN(c2nc(CN(C)C)nc4c2CC(C)(C)CC4)CCO3)cc1C(C)=O | 100 to 500 nM
Cc1nc2cc(-c3ccc4c(c3)CN(c3nc(CN(C)C)nc(C)c3Cl)CCO4)ccc2[nH]1 | 100 to 500 nM
C=CCc1c(C)nc(N)nc1N1CCOc2ccc(-c3ccc4nc(C)[nH]c4c3)cc2C1 | ≤ 100 nM
Cc1nc(N)nc(N2CCOc3ccc(-c4cnc5[nH]cnc5c4)cc3C2)c1Cc1ccc(F)cc1 | ≤ 100 nM
CCCc1c(C)nc(CN(C)C)nc1N1CCOc2ccc(-c3ccc4nc(C)[nH]c4c3)cc2C1 | ≤ 100 nM
